Reference: ChEMBL document CHEMBL1134808, “Evolution of anti-HIV drug candidates. Part 1: From alpha-anilinophenylacetamide (alpha-APA) to imidoyl thiourea (ITU)” (Bioorg Med Chem Lett, 2001)
Structures can show the parent of a compound that is named as a salt.

Experiments:
[1] = test system: Human immunodeficiency virus 1; experiment: Compound potency to achieve protection of MT-4 cells from HIV-1 cytopathicity; format: functional, organism-based, MT4
MT4 [2] = experiment: Compound was tested for potency to achieve protection of MT-4 cells from 106A strain of HIV-1 virus; format: functional, cell-based; conditions: Homo sapiens
MT4 [3] = experiment: Compound was tested for potency to achieve protection of MT-4 cells from 181C strain of HIV-1 virus; format: functional, cell-based; conditions: Homo sapiens
MT4 [4] = experiment: Compound was tested for potency to achieve protection of MT-4 cells from 100I strain of HIV-1 virus; format: functional, cell-based; conditions: Homo sapiens
MT4 [5] = experiment: Compound was tested for potency to achieve protection of MT-4 cells from 190A strain of HIV-1 virus; format: functional, cell-based; conditions: Homo sapiens
MT4 [6] = experiment: Compound was tested for potency to achieve protection of MT-4 cells from 101E strain of HIV-1 virus; format: functional, cell-based; conditions: Homo sapiens
MT4 [7] = experiment: Compound was tested for potency to achieve protection of MT-4 cells from LAI strain of HIV-1 virus; format: functional, cell-based; conditions: Homo sapiens
MT4 [8] = experiment: Compound was tested for potency to achieve protection of MT-4 cells from 188L strain of HIV-1 virus; format: functional, cell-based; conditions: Homo sapiens
MT4 [9] = experiment: Compound was tested for potency to achieve protection of MT-4 cells from 103N strain of HIV-1 virus; format: functional, cell-based; conditions: Homo sapiens
[10] = Human immunodeficiency virus 1, MT4

Structure (SMILES) | IC50 [1, 10] [µM] | other results
N#Cc1ccc(NC(=N)NC(=N)Cc2c(Cl)cccc2Cl)cc1 | 7.94 | 
N#Cc1ccc(NC(=S)NC(=N)C2(c3c(Cl)cccc3Cl)CC2)cc1 | 1.48 | 
C/N=C(/Cc1c(Cl)cccc1Cl)NC(=O)Nc1ccc(C#N)cc1 | 0.214 | 
N#Cc1ccc(NC(=S)NC(=N)c2c(Cl)cccc2Cl)cc1 | 22.9 | 
N=C(Cc1c(Cl)cccc1Cl)NC(=S)NCc1ccc(Cl)cc1 | 0.692 | 
CN(/C(S)=N/C(=N)Cc1c(Cl)cccc1Cl)c1ccc(C#N)cc1 | 58.9 | 
NC(=O)C(Nc1ccc(Cl)cc1)c1c(Cl)cccc1Cl (stereo not given) | > 160 | 
N#Cc1ccc(NC(=S)NC(=N)Cc2ccccc2)cc1 | 0.38 | 
N=C(Cc1c(Cl)cccc1Cl)NC(=S)Nc1ccc(Cl)cc1Cl | 0.347 | 
NC(=O)C(NC(=O)c1ccccc1[N+](=O)[O-])c1c(Cl)cccc1Cl (stereo not given) | > 79 | 
N#Cc1ccc(NC(=S)/N=C(/Cc2c(Cl)cccc2Cl)Nc2ccccc2)cc1 | 1.32 | 
NC(=O)C(NC(=O)Nc1ccccc1[N+](=O)[O-])c1c(Cl)cccc1Cl (stereo not given) | > 320 | 
N#Cc1ccc(NC(=S)NC(=N)CCc2c(Cl)cccc2Cl)cc1 | 0.525 | 
N=C(Cc1c(Cl)cccc1Cl)NC(=S)Nc1c(Cl)cc(Cl)cc1Cl | 42.7 | 
N=C(Cc1c(Cl)cccc1Cl)NC(=S)NCCc1ccc(Cl)cc1 | 1.62 | 
N#Cc1ccc(NC(=S)NS(=O)(=O)Cc2c(Cl)cccc2Cl)cc1 | 100 | 
N#Cc1ccccc1NC(=S)NC(=N)Cc1c(Cl)cccc1Cl | 631 | 
NC(=O)C(/N=C(\S)Nc1ccc(Cl)cc1)c1c(Cl)cccc1Cl (stereo not given) | 0.16 | 
NC(=O)C(/N=C(\S)Nc1ccccc1Cl)c1c(Cl)cccc1Cl (stereo not given) | > 60 | 
N#Cc1ccc(NC(=S)NC(=O)Cc2c(Cl)cccc2Cl)cc1 | 631 | 
NC(=O)C(NCc1ccccc1[N+](=O)[O-])c1c(Cl)cccc1Cl (stereo not given) | > 250 | 
NC(=O)C(Nc1ccccc1Cl)c1c(Cl)cccc1Cl (stereo not given) | 0.4 | 
NC(=O)C(/N=C(\S)Nc1cccc(Cl)c1)c1c(Cl)cccc1Cl (stereo not given) | 5.2 | 
CC(C)Nc1cccnc1N1CCN(C(=O)c2cc3cc(NS(C)(=O)=O)ccc3[nH]2)CC1 [DELAVIRDINE MESYLATE] |  | IC50 (MT4 [2]): 1.59 µM; IC50 (MT4 [3]): 2 µM; IC50 (MT4 [4]): 2.51 µM; IC50 (MT4 [5]): 0.063 µM; IC50 (MT4 [6]): 0.158 µM; IC50 (MT4 [7]): 0.063 µM; IC50 (MT4 [8]): 1.26 µM; IC50 (MT4 [9]): 2.51 µM
CC(=O)c1ccc(C)cc1NC(C(N)=O)c1c(Cl)cccc1Cl (stereo not given) [LOVIRIDE] |  | IC50 (MT4 [2]): 1 µM; IC50 (MT4 [3]): 15.8 µM; IC50 (MT4 [4]): 0.05 µM; IC50 (MT4 [5]): 2.51 µM; IC50 (MT4 [6]): 0.063 µM; IC50 (MT4 [7]): 0.05 µM; IC50 (MT4 [8]): 50.1 µM; IC50 (MT4 [9]): 1.26 µM

Continued by falling IC50 [1, 10], values first:

IC50 [1, 10] [µM] | Structure (SMILES) | other results
0.158 | CC(C(=N)/N=C(\S)Nc1ccc(C#N)cc1)c1c(Cl)cccc1Cl (stereo not given) | 
0.158 | CCN/C(Cc1c(Cl)cccc1Cl)=N\C(S)=N\c1ccc(C#N)cc1 | 
0.148 | N#Cc1ccc(NC(=S)NC(=N)Cc2ccc(Cl)cc2)cc1 | 
0.126 | N#Cc1cccc(NC(=S)NC(=N)Cc2c(Cl)cccc2Cl)c1 | 
0.123 | N=C(Cc1c(Cl)cccc1Cl)NC(=S)Nc1ccccc1 | 
0.1 | NC(=O)C(Nc1ccccc1[N+](=O)[O-])c1c(Cl)cccc1Cl (stereo not given) | 
0.068 | N#Cc1ccc(NC(=S)NC(=N)Cc2cccc(Cl)c2)cc1 | 
0.03 | COc1ccccc1CC(=N)/N=C(\S)Nc1ccc(C#N)cc1 | 
0.026 | Cc1ccccc1CC(=N)/N=C(\S)Nc1ccc(C#N)cc1 | 
0.015 | N#Cc1ccc(NC(=O)NC(=N)Cc2c(Cl)cccc2Cl)cc1 | 
0.014 | N#Cc1ccc(NC(=S)NC(=N)Cc2ccccc2Cl)cc1 | 
0.013 | N=C(Cc1c(Cl)cccc1Cl)NC(=S)Nc1ccc(Cl)cc1 | 
0.007 | N#Cc1ccc(NC(=S)NC(=N)Cc2ccc(Cl)cc2Cl)cc1 | 
0.006 | N#Cc1ccc(N/C(S)=N/C(=N)Cc2c(F)cccc2F)cc1 | 
0.005 | N#Cc1ccc(NC(=S)NC(=N)Cc2c(Cl)ccc(Cl)c2Cl)cc1 | 
0.0039 | CN/C(Cc1c(Cl)cccc1Cl)=N\C(S)=N\c1ccc(C#N)cc1 | 
0.003 | N#Cc1ccc(NC(=S)NC(=N)Cc2c(Cl)cccc2Cl)cc1 | IC50 ([1]; mt4): 0.0025 µM; IC50 (MT4 [2]): 0.382 µM; IC50 (MT4 [3]): 0.511 µM; IC50 (MT4 [4]): 0.513 µM; IC50 (MT4 [5]): 0.002 µM; IC50 (MT4 [6]): 0.019 µM; IC50 (MT4 [7]): 0.003 µM; IC50 (MT4 [8]): 0.318 µM; IC50 (MT4 [9]): 0.589 µM
